Test systems include A498; COLO 205; DLD-1; DMS-273; HCT-116; HCT-15; IGROV-1; KM12; Malme-3M; NCI-H460; NCI-H522; RPMI-8226; SF-539; SN12C; SNB-19; SNB-75; SW-620; TK-10; UACC-257; UO-31.
Test in all cases: DTP human tumour cell line panel, 48 h

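Dose response: 5 concentrations. Exposure: 48 h. Format: 96-well plates. Endpoint: linear interpolation; highest concentration if not reached. GI50: concentration for 50% inhibition of growth.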 The source made the active and inactive calls. Rule as the data show it: active = GI50 up to about 1.1 µM and inactive = higher.

Experimental findings from ChEMBL document CHEMBL1201862, “PubChem BioAssay data set” (2004) are described below.

Consider `CC1(C)C(O)C[C@@H](O)[C@@]2(C)C1CC[C@]1(C)C2C[C@@H](O)[C@@H]2C([C@@]3(C)CC[C@@H](C(C)(C)O)O3)CCC21C` (some centres undefined), for which the GI50 is 17.3 µM (inactive) with A498; 16.4 µM (inactive) in the assay with COLO 205; 16.5 µM (inactive) in the assay on DLD-1; 14.6 µM (inactive) in the assay on DMS-273; 17 µM (inactive) in the assay with HCT-116; 12.6 µM with HCT-15. Also, the GI50 in the assay with IGROV-1 was 14.5 µM (inactive); in the assay with KM12, 15.9 µM (inactive); with Malme-3M, 13.4 µM (inactive); in the assay on NCI-H460, 18.9 µM (inactive); with NCI-H522, 14.6 µM (inactive); in the assay with RPMI-8226 it was 16.7 µM (inactive). Besides, the GI50 in the assay on SF-539 is 14.2 µM (inactive); in the assay with SN12C, 13.8 µM (inactive); in the assay with SNB-19 it was 14.2 µM (inactive); in the assay on SNB-75 it was 15 µM (inactive); with SW-620, 16.5 µM (inactive); in the assay on TK-10, 27.2 µM (inactive). Besides, the GI50 with UACC-257 is 21 µM (inactive); with UO-31, 17.5 µM (inactive).

`CCCCCCCCCCOC(=O)NCCC`: the GI50 was 31.7 µM (inactive) with A498; 40.5 µM (inactive) in the assay on COLO 205; 34.8 µM (inactive) with DLD-1; 20.6 µM (inactive) in the assay on DMS-273; 21 µM with HCT-15; 64.1 µM (inactive) with IGROV-1. The GI50 with KM12 is 36.1 µM (inactive); with Malme-3M it was 21.4 µM (inactive); in the assay with NCI-H460, 25.8 µM (inactive); in the assay on NCI-H522, 18.7 µM (inactive); with RPMI-8226 it was 17.9 µM (inactive); in the assay on SF-539, 59.7 µM (inactive). Besides, the GI50 is 28 µM (inactive) in the assay on SN12C; 34.4 µM (inactive) in the assay with SNB-19; 49.2 µM (inactive) in the assay with SNB-75; 48.6 µM (inactive) in the assay on SW-620; 34.5 µM (inactive) in the assay on TK-10; 30.2 µM (inactive) with UACC-257. Besides, the GI50 in the assay with UO-31 is 16.2 µM (inactive).
